# Patent US20240090503A1, “FUNGICIDAL OXADIAZOLES AND THEIR MIXTURES” (FMC CORPORATION, priority 2020, published 2024)
# Marks after values point to notes of the source that are not given here.
# Legend:
# Type in all cases: in vivo
# [1] = system: Phakopsora pachyrhizi (the causal agent of Asian soybean rust); experiment: Test A: preventive spray on soybean seedlings, Asian soybean rust, visual disease rating; conditions: soybean seedlings
# Summary of the method: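 Preventive test: soybean seedlings received a run-off spray of compound suspended at the set ppm in 50/50 acetone/water plus 250 ppm PEG400, and one day later a P. pachyrhizi spore inoculum. Visual scoring (0 none to 100 full disease control) followed 24 h saturated incubation and 8 days' growth chamber, both at 22° C.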
# [2] = system: Zymoseptoria tritici (the causal agent of wheat leaf blotch); experiment: Test B: preventive spray on wheat seedlings, wheat leaf blotch, visual disease rating; conditions: wheat seedlings
# Excerpt: General protocol for preparing test suspensions for Tests A-D: the test compounds were first dissolved in acetone in an amount equal to 3% of the final volume and then suspended at the desired concentration (in ppm) in acetone and purified water (50/50 mix by volume) containing 250 ppm of the surfactant PEG400 (polyhydric alcohol esters). The resulting test suspensions were then used in Tests A-D.
# The test suspension was sprayed to the point of run-off on wheat seedlings. The following day the seedlings were inoculated with a spore suspension of Zymoseptoria tritici (the causal agent of wheat leaf blotch) and incubated in a saturated atmosphere at 24° C. for 48 h, and then moved to a growth chamber at 20° C. for 17 days, after which time visual disease ratings were made.
# The test results for Tests A-C presented in Table A below for compounds of Formula 1 illustrate the fungicidal activity of component (a) contributing to the plant disease control utility of compositions comprising component (a) in combination with component (b) according to the present invention. In the Table, a rating of 100 indicates 100% disease control and a rating of 0 indicates no disease control (relative to the controls). A dash (-) indicates the compound was not tested. The test suspensions were sprayed at the concentration listed in the column “Rate in ppm”, unless otherwise indicated. An asterisk “*” next to the rating indicates a 250 ppm test suspension was used, a double asterisk “**” next to the rating indicates a 100 ppm test suspension was used, and a triple asterisk “***” next to the rating indicates a 50 ppm test suspension was used.
# [3] = system: Puccinia recondita f. sp. tritici (the causal agent of wheat leaf rust); experiment: Test C: preventive spray on wheat seedlings, wheat leaf rust, visual disease rating; conditions: wheat seedlings
# Summary of the method: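 Wheat seedlings sprayed to run-off with compound in acetone/water (50/50) with 250 ppm PEG400, then inoculated with spores the following day. After 24 h saturated humidity at 20° C. and 6 days in growth chamber at 20° C., disease rated visually as % control relative to untreated controls.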
# [4] = test suspension 10 ppm, 100 = 100% disease control, 0 = no control
# [5] = Phakopsora pachyrhizi, 216 h, 10 ppm test suspension, 100 = 100% disease control, 0 = no control
# [6] = Zymoseptoria tritici, 456 h, 250 ppm test suspension, 100 = 100% disease control
# [7] = Puccinia recondita, 168 h, 10 ppm test suspension, 100 = 100% disease control, 0 = no control
# [8] = 10 ppm test suspension, 100 = 100% disease control, 0 = no control
# [9] = 250 ppm test suspension, 100 = 100% disease control
# [10] = test suspension 100 ppm (** next to rating)
structure (smiles),measurement,setting,value
"O=c1cnc2ccccc2n1Cc1ccc(-c2noc(C(F)(F)F)n2)cc1 [Compound 158, 1-[[4-[5-(trifluoromethyl)-1,2,4-oxadiazol-3-yl]phenyl]methyl]-2(1H)-quinoxalinone]",pest or weed control at 270 µg/mL,"[1]; Phakopsora pachyrhizi, 216 h, test suspension 270 ppm",100%
same,pest or weed control at 270 µg/mL,"[2]; Zymoseptoria tritici, 456 h, test suspension 270 ppm",90%
same,pest or weed control at 270 µg/mL,"[3]; Puccinia recondita, 168 h, test suspension 270 ppm",100%
"Cn1c(=O)n(Cc2ccc(-c3noc(C(F)(F)F)n3)cc2)c2ccccc21 [Compound 159, 1,3-dihydro-1-methyl-3-[[4-[5-(trifluoromethyl)-1,2,4-oxadiazol-3-yl]phenyl]methyl]-2H-benzimidazol-2-one]",pest or weed control at 260 µg/mL,"[1]; Phakopsora pachyrhizi, 216 h, test suspension 260 ppm",100%
same,pest or weed control at 260 µg/mL,"[2]; Zymoseptoria tritici, 456 h, test suspension 260 ppm",87%
same,pest or weed control at 260 µg/mL,"[3]; Puccinia recondita, 168 h, test suspension 260 ppm",100%
CCOC(=O)c1cnn(C(C)c2ccc(-c3noc(C(F)(F)F)n3)s2)c1 (stereo not drawn) [Compound 192],Test A disease control rating,[1]; [4],100%
same,Test B disease control rating,[2]; test suspension 250 ppm,99* %
same,Test C disease control rating,[3]; test suspension 10 ppm,100%
"CCCOC(=O)c1cnn(Cc2ccc(-c3noc(C(F)(F)F)n3)s2)c1 [Compound 198, propyl 1-[[5-[5-(trifluoromethyl)-1,2,4-oxadiazol-3-yl]-2-thienyl]methyl]-1H-pyrazole-4-carboxylate]",pest or weed control at 10 µg/mL,"[1]; Phakopsora pachyrhizi, 216 h, test suspension 10 ppm, 100 = 100% disease control, 0 = no control, read-out: Test A disease control rating",100%
same,pest or weed control at 100 µg/mL,"[2]; Zymoseptoria tritici, 456 h, test suspension 100 ppm (** next to rating), read-out: Test B disease control rating",94%
same,pest or weed control at 10 µg/mL,"[3]; Puccinia recondita, 168 h, test suspension 10 ppm, read-out: Test C disease control rating",99%
O=C(c1coc(Cc2ccc(-c3noc(C(F)(F)F)n3)cc2)n1)N1CCOCC1 [Compound 263],Test A disease control rating,[1]; [4],100%
same,Test B disease control rating,[2]; test suspension 250 ppm,95* %
same,Test C disease control rating,[3]; test suspension 10 ppm,94%
COCCNC(=O)c1ccc(Cc2ccc(-c3noc(C(F)(F)F)n3)cc2)cc1 [Compound 282],Test A disease control rating,[1]; [4],100%
same,Test B disease control rating,[2]; test suspension 250 ppm,94* %
same,Test C disease control rating,[3]; test suspension 10 ppm,97%
FC(F)(F)c1nc(-c2ccc(OCn3cncn3)cc2)no1 [Compound 337],Test A disease control rating,[1]; [4],99%
same,Test B disease control rating,[2]; test suspension 250 ppm,78* %
same,Test C disease control rating,[3]; test suspension 10 ppm,82%
FC(F)(F)c1nc(-c2ccc(OCc3cccnc3)cc2)no1 [Compound 353],Test A disease control rating,[1]; [4],0%
same,Test B disease control rating,[2]; test suspension 250 ppm,73* %
same,Test C disease control rating,[3]; test suspension 10 ppm,0%
"O=C(NCCF)c1coc(Cc2ccc(-c3noc(C(F)(F)F)n3)cc2)n1 [Compound 400, N-(2-fluoroethyl)-2-[[4-[5-(trifluoromethyl)-1,2,4-oxadiazol-3-yl]phenyl]methyl]-4-oxazolecarboxamide]",pest or weed control at 10 ppm,[1]; [5],100%
same,pest or weed control at 250 ppm,[2]; [6],99%
same,pest or weed control at 10 ppm,[3]; [7],100%
"O=C(NCCOC(F)(F)F)c1coc(Cc2ccc(-c3noc(C(F)(F)F)n3)cc2)n1 [Compound 401, N-[2-(trifluoromethoxy)ethyl]-2-[[4-[5-(trifluoromethyl)-1,2,4-oxadiazol-3-yl]phenyl]methyl]-4-oxazolecarboxamide]",pest or weed control at 10 ppm,[1]; [5],100%
same,pest or weed control at 250 ppm,[2]; [6],77%
same,pest or weed control at 10 ppm,[3]; [7],99%
"O=C(c1coc(Cc2ccc(-c3noc(C(F)(F)F)n3)cc2)n1)N1CCC(F)(F)C1 [Compound 402, (3,3-difluoro-1-pyrrolidinyl)[2-[[4-[5-(trifluoromethyl)-1,2,4-oxadiazol-3-yl]phenyl]methyl]-4-oxazolyl]methanone]",pest or weed control at 10 ppm,[1]; [5],100%
same,pest or weed control at 250 ppm,[2]; [6],96%
same,pest or weed control at 10 ppm,[3]; [7],90%
"COC(=O)c1coc(COc2ccc(-c3noc(C(F)(F)F)n3)cc2)n1 [Compound 403, methyl 2-[[4-[5-(trifluoromethyl)-1,2,4-oxadiazol-3-yl]¬phenoxy]¬methyl]oxazole-4-carboxylate]",Test A disease control rating,[1]; [8],60%
same,Test B disease control rating,[2]; [9],47* %
same,Test C disease control rating,[3]; [8],0%
CCOC(=O)c1cccc(Cc2ccc(-c3noc(C(F)(F)F)n3)cc2)c1 [Compound 454],Test A disease control rating,[1]; [8],100%
same,Test B disease control rating,[2]; [9],47* %
same,Test C disease control rating,[3]; [8],0%
COC(=O)c1csc(Cc2ccc(-c3noc(C(F)(F)F)n3)cc2)c1 [Compound 455],Test A disease control rating,[1]; [8],100%
same,Test B disease control rating,[2]; [9],66* %
same,Test C disease control rating,[3]; [8],0%
"O=C(NCC(F)(F)F)c1csc(Cc2ccc(-c3noc(C(F)(F)F)n3)cc2)n1 [Compound 463, N-(2,2,2-trifluoroethyl)-2-[[4-[5-(trifluoromethyl)-1,2,4-oxadiazol-3-yl]phenyl]methyl]-4-thiazolecarboxamide]",pest or weed control at 10 ppm,[1]; [5],100%
same,pest or weed control at 250 ppm,[2]; [6],65%
same,pest or weed control at 10 ppm,[3]; [7],100%
COC(=O)c1coc(Cc2ccc(-c3noc(C(F)(F)F)n3)cc2)n1 [Compound 490],Test A disease control rating,[1]; [8],100%
same,Test B disease control rating,[2]; [9],94* %
same,Test C disease control rating,[3]; [8],74%
Cc1ccccc1C(O)c1ccc(-c2noc(C(F)(F)F)n2)cc1 (stereo not drawn) [Compound 497],Test A disease control rating,[1]; [8],100%
same,Test B disease control rating,[2]; [9],5* %
same,Test C disease control rating,[3]; [8],0%
CN(C)N=Cc1cnn(Cc2ccc(-c3noc(C(F)(F)F)n3)cc2)c1 [compound 19],Test A disease control rating,[1]; test suspension 250 ppm,100%
same,Test B disease control rating,[2]; test suspension 250 ppm,100%
same,Test C disease control rating,[3]; test suspension 250 ppm,100%
CON=Cc1cnn(Cc2ccc(-c3noc(C(F)(F)F)n3)cc2)c1 [compound 25],Test A disease control rating,[1]; test suspension 250 ppm,100%
same,Test B disease control rating,[2]; test suspension 250 ppm,86* %
same,Test C disease control rating,[3]; test suspension 250 ppm,100%
O=C(O)CON=Cc1cnn(Cc2ccc(-c3noc(C(F)(F)F)n3)cc2)c1 [compound 26],Test A disease control rating,[1]; test suspension 250 ppm,100%
same,Test B disease control rating,[2]; test suspension 250 ppm,46* %
same,Test C disease control rating,[3]; test suspension 250 ppm,100%
CCOC(=O)C1=NOC(Cc2ccc(-c3noc(C(F)(F)F)n3)cc2)C1 (stereo not drawn) [compound 29],Test A disease control rating,[1]; [4],73%
same,Test B disease control rating,[2]; test suspension 250 ppm,94* %
same,Test C disease control rating,[3]; test suspension 10 ppm,19%
C#CCOC(=O)c1cnn(Cc2ccc(-c3noc(C(F)(F)F)n3)cc2)c1 [compound 56],Test A disease control rating,[1]; [4],100%
same,Test B disease control rating,[2]; [10],68** %
same,Test C disease control rating,[3]; test suspension 10 ppm,100%
CC(C)OC(=O)c1cnn(Cc2ccc(-c3noc(C(F)(F)F)n3)cc2)c1 [compound 58],Test A disease control rating,[1]; [4],100%
same,Test B disease control rating,[2]; [10],83** %
same,Test C disease control rating,[3]; test suspension 10 ppm,100%
COCCOC(=O)c1cnn(Cc2ccc(-c3noc(C(F)(F)F)n3)cc2)c1 [compound 59],Test A disease control rating,[1]; [4],100%
same,Test B disease control rating,[2]; [10],58** %
same,Test C disease control rating,[3]; test suspension 10 ppm,100%
CCCOC(=O)c1cnn(Cc2ccc(-c3noc(C(F)(F)F)n3)cc2)c1 [compound 60],Test A disease control rating,[1]; [4],100%
same,Test B disease control rating,[2]; [10],75** %
same,Test C disease control rating,[3]; test suspension 10 ppm,100%
CCOC(=O)c1cnn(Cc2ccc(-c3noc(C(F)(F)F)n3)s2)c1 [compound 70],Test A disease control rating,[1]; test suspension 255 ppm,100%
same,Test B disease control rating,[2]; test suspension 255 ppm,96%
same,Test C disease control rating,[3]; test suspension 255 ppm,100%
